Results reported in paper PMC6987092, “Characterization and diversity of the complete set of GH family 3 enzymes from Rhodothermus marinus DSM 4253” (Scientific Reports, 2020).

Key:
Assay in all cases: pNP release at […] nm
Type in all cases: biochemical
Settings in all cases: 20 mM citrate phosphate pH 5.6, 60 °C
RmBgl3B = target: T1, RmBgl3B (Rhodothermus marinus, UniProt D0MD38)
T1 construct: gene Rmar_2069; recombinant in E. coli BL21 C43 (pET-21b(+)), signal peptide removed, C-terminal His-tag; locus tag is that of the type strain DSM 4252T homolog, gene cloned from DSM 4253
T1 sequence (D0MD38 21-839): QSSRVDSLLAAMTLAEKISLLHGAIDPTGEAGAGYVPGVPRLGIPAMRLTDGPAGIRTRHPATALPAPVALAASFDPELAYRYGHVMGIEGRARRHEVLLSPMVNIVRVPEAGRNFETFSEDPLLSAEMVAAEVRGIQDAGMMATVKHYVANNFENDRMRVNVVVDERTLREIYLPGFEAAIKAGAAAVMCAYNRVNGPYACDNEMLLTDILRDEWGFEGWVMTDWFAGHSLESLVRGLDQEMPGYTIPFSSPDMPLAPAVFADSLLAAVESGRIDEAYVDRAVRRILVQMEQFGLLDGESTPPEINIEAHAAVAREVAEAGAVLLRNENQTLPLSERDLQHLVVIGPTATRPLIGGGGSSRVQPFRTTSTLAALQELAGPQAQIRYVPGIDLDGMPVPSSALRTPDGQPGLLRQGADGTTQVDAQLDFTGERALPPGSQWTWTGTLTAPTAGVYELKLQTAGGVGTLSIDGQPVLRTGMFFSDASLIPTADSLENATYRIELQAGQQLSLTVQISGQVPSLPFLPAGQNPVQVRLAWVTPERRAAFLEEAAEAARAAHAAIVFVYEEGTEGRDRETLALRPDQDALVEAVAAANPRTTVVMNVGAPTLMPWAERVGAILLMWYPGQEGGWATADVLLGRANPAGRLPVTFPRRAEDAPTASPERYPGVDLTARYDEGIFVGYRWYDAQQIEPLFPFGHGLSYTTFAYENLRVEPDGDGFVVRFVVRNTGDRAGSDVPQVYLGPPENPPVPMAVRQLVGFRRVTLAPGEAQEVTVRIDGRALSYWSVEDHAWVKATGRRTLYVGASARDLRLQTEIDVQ

RmXyl3A = target: T2, RmXyl3A (Rhodothermus marinus, UniProt D0MHL4)
T2 construct: gene Rmar_1080; locus tag is that of the type strain DSM 4252T homolog, gene cloned from DSM 4253
T2 sequence (D0MHL4 19-792): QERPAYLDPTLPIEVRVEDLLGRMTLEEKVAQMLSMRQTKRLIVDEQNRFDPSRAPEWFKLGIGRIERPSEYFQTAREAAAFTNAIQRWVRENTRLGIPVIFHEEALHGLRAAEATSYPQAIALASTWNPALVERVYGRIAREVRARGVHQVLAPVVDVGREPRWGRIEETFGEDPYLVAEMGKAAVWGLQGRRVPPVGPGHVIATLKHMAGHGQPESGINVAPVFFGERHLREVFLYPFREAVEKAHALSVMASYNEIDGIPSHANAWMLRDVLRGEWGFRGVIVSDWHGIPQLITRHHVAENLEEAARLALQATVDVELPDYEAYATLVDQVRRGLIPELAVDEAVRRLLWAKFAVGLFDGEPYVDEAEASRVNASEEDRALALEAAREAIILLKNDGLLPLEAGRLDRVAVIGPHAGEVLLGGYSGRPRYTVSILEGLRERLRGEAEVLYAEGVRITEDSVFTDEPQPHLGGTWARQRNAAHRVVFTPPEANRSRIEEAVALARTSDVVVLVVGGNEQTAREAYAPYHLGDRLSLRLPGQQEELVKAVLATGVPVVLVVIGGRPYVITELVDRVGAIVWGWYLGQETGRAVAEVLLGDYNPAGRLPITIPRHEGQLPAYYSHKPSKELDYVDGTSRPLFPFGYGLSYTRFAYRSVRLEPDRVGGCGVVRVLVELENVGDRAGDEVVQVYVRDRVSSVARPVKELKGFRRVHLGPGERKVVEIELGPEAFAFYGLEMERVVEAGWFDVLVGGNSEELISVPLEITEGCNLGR

RmXyl3B = target: T3, RmXyl3B (Rhodothermus marinus, UniProt D0MHL5)
T3 construct: gene Rmar_1081; locus tag is that of the type strain DSM 4252T homolog, gene cloned from DSM 4253
T3 sequence (D0MHL5 entry or part of it): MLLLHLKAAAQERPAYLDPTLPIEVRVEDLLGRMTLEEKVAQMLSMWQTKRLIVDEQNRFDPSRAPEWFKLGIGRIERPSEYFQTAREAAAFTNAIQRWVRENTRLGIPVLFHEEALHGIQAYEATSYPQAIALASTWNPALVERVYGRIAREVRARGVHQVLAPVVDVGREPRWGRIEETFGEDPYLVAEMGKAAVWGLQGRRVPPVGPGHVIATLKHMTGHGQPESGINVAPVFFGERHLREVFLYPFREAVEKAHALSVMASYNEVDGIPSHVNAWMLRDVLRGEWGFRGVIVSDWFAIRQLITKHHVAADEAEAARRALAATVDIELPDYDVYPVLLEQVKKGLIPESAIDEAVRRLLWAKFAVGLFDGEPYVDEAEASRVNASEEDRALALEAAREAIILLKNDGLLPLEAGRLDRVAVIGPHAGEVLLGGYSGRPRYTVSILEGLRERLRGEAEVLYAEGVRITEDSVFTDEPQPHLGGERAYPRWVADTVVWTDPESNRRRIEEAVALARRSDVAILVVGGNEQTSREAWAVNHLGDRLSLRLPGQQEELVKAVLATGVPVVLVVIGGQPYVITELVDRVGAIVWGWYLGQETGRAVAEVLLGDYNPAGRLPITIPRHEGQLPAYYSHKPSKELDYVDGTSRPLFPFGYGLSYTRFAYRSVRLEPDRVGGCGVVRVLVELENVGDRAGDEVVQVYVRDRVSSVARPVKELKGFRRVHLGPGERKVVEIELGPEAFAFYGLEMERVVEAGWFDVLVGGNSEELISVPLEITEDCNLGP

pNP-α-L-Ara showed a Km (RmBgl3B) of 1900 ± 100 µM, a Km (RmXyl3A) of 8800 ± 1000 µM and a Km (RmXyl3B) of 2000 ± 200 µM.
